Test results: US12358886B2, “Heterocyclic compounds for use in the treatment of cancer” (Artios Pharma Limited, priority 2019, dated 2025)
Where two headings read alike, the source gives them in different places.

Biological target: Polθ protein (amino acids 2-2590) (Homo sapiens, UniProt O75417)
Experiment: Polθ full length enzyme potency assay (PicoGreen)
Settings: full length N-His, C-term FLAG tagged Polθ, PicoGreen fluorescence, 12 point concentration response

Sequence of Polθ protein (amino acids 2-2590) (O75417 2-2590): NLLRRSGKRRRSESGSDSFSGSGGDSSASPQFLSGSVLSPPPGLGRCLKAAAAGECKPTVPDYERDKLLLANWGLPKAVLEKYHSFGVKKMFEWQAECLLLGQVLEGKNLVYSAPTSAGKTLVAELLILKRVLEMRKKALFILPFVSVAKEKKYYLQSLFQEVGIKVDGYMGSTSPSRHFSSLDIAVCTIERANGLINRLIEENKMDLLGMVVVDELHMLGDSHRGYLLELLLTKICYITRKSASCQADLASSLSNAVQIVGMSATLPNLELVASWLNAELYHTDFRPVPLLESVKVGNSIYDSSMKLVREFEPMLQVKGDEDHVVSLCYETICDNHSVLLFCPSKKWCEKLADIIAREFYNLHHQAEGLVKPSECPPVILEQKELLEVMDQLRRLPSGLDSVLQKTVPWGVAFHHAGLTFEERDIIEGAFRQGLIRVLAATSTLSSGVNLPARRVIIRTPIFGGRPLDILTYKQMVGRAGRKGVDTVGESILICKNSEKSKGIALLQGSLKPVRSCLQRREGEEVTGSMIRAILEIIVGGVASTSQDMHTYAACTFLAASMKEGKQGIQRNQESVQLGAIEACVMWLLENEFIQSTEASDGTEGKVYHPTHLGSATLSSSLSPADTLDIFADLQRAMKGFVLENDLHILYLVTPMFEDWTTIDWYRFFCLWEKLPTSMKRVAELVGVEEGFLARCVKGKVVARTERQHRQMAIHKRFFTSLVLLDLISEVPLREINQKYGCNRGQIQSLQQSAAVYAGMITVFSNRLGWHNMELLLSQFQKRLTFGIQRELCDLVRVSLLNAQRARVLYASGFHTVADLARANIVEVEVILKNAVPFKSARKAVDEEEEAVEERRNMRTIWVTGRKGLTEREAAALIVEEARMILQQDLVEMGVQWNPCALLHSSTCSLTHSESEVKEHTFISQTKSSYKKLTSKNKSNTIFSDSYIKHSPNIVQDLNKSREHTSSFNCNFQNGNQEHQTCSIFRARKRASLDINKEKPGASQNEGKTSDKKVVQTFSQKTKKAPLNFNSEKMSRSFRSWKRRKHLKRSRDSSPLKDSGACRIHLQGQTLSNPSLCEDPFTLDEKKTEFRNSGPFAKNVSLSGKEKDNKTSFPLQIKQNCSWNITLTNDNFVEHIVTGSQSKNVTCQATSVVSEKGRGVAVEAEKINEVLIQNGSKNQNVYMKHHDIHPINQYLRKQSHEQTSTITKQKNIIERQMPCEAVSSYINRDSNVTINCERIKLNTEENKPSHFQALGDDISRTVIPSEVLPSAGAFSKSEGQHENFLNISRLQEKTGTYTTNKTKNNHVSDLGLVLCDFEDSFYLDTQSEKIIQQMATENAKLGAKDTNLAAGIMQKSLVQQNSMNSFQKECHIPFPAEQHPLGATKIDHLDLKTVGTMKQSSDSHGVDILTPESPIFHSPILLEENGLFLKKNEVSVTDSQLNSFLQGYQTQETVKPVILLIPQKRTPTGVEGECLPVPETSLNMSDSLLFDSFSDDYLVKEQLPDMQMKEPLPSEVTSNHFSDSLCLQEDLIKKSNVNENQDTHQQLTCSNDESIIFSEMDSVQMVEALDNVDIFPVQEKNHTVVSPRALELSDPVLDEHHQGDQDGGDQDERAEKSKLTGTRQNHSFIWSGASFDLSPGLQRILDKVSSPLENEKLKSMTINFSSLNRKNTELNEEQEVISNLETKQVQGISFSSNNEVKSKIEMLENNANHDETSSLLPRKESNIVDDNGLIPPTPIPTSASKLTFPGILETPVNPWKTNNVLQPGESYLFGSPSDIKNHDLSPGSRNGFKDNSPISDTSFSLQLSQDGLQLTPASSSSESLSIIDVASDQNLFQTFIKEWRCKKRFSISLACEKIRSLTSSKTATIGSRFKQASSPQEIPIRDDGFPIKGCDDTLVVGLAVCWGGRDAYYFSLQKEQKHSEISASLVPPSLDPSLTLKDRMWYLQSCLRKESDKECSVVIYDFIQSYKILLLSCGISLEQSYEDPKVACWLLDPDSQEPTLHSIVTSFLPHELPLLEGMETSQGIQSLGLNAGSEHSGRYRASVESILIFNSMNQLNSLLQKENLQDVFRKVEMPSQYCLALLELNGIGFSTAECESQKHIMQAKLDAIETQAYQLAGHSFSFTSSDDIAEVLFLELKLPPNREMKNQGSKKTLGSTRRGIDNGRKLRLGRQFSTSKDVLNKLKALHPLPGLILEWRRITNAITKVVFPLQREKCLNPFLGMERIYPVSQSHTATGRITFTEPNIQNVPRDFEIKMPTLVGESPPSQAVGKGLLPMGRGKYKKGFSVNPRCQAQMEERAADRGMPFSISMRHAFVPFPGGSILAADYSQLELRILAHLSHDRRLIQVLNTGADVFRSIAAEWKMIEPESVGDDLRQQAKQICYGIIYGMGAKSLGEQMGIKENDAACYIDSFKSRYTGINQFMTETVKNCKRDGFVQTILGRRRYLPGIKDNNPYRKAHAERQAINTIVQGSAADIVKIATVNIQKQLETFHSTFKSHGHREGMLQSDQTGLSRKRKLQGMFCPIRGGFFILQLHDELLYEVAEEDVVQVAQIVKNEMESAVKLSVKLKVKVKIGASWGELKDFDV

Row | SMILES | IC50 (Polθ IC50 (nM)) | IC50 (read-out: Polθ IC50)
1 | Cc1cccc(N(C)C(=O)[C@@H]2[C@@H](O)CCN2c2nc(C)cc(C(F)(F)F)c2C#N)c1 [Example 26, (2S,3S)-1-(3-Cyano-6-methyl-4-(trifluoromethyl)pyridin-2-yl)-3-hydroxy-N-methyl-N-(m-tolyl)pyrrolidine-2-carboxamide] |  | 61 nM
2 | CN(C(=O)[C@@H]1COC(=O)N1c1cc(C(F)(F)F)cc(Cl)n1)c1ccc(F)c(Cl)c1 [Example 113, (S)-3-(6-Chloro-4-(trifluoromethyl)pyridin-2-yl)-N-(3-chloro-4-fluorophenyl)-N-methyl-2-oxooxazolidine-4-carboxamide] | 21 nM | 
3 | Cc1cc(C(F)(F)F)c(C#N)c(N2C[C@@H](O)C[C@H]2C(=O)N(C)c2cc(F)c(F)cc2F)n1 [Example 20, (2S,4S)-1-(3-Cyano-6-methyl-4-(trifluoromethyl)pyridin-2-yl)-4-hydroxy-N-methyl-N-(2,4,5-trifluorophenyl)pyrrolidine-2-carboxamide] | 67 nM | 
4 | Cc1cc(C(F)(F)F)cc(N2C(=O)OC[C@H]2C(=O)N(C)c2ccc(F)c(Br)c2)n1 [Example 93, (S)-N-(3-Bromo-4-fluorophenyl)-N-methyl-3-(6-methyl-4-(trifluoromethyl)pyridin-2-yl)-2-oxooxazolidine-4-carboxamide] | 16 nM | 
5 | Cc1cc(C(F)(F)F)cc(N2C(=O)OC[C@H]2C(=O)N(C)c2ccc(F)c(C)c2F)n1 [Example 100, (S)-N-(2,4-Difluoro-3-methylphenyl)-N-methyl-3-(6-methyl-4-(trifluoromethyl)pyridin-2-yl)-2-oxooxazolidine-4-carboxamide] | 4 nM | 
6 | Cc1cccc(N(C)C(=O)[C@@H]2[C@@H](O)[C@@H](O)CN2c2nc(C)cc(C(F)(F)F)c2C#N)c1 [Example 53, (2S,3R,4S)-1-(3-Cyano-6-methyl-4-(trifluoromethyl)pyridin-2-yl)-3,4-dihydroxy-N-methyl-N-(m-tolyl)pyrrolidine-2-carboxamide] | 121 nM | 
7 | C=Cc1ccc(N(C)C(=O)[C@@H]2COC(=O)N2c2cc(C(F)(F)F)cc(C)n2)c(F)c1 [Example 111, (S)—N-(2-Fluoro-4-vinylphenyl)-N-methyl-3-(6-methyl-4-(trifluoromethyl)pyridin-2-yl)-2-oxooxazolidine-4-carboxamide] | 18 nM | 
8 | CCc1cc(N(C)C(=O)[C@@H]2COC(=O)N2c2cc(C(F)(F)F)cc(C)n2)ccc1F [Example 110, (S)—N-(3-Ethyl-4-fluorophenyl)-N-methyl-3-(6-methyl-4-(trifluoromethyl)pyridin-2-yl)-2-oxo-oxazolidine-4-carboxamide] | 21 nM | 
9 | Cc1cc(C(F)(F)F)cc(N2C(=O)OC[C@H]2C(=O)N(C)c2ccc(C)c(O)c2)n1 [Example 105, (S)—N-(3-Hydroxy-4-methylphenyl)-N-methyl-3-(6-methyl-4-(trifluoromethyl)pyridin-2-yl)-2-oxooxazolidine-4-carboxamide] | 19 nM | 
10 | CCN(C(=O)[C@@H]1C[C@H](N)CN1c1nc(C)cc(C)c1C#N)c1cccc(C)c1 [Example 38, (2S,4S)-4-Amino-1-(3-cyano-4,6-dimethylpyridin-2-yl)-N-ethyl-N-(m-tolyl)pyrrolidine-2-carboxamide] | 273 nM | 
11 | Cc1cccc(N(C)C(=O)[C@@H]2[C@H](O)CCN2c2nc(C)cc(C)c2C#N)c1 [Example 25, (2S,3R)-1-(3-Cyano-4,6-dimethylpyridin-2-yl)-3-hydroxy-N-methyl-N-(m-tolyl)pyrrolidine-2-carboxamide] | 32 nM | 
12 | COc1cc(N(C)C(=O)[C@@H]2C[C@H](O)CN2c2nc(C)cc(C(F)(F)F)c2C#N)ccc1F [Example 16, (2S,4S)-1-(3-Cyano-6-methyl-4-(trifluoromethyl)pyridin-2-yl)-N-(4-fluoro-3-methoxyphenyl)-4-hydroxy-N-methylpyrrolidine-2-carboxamide] | 274 nM | 
13 | Cc1cc(C(F)(F)F)c(C#N)c(N2C[C@@H](O)C[C@H]2C(=O)N(C)c2cc(F)cc(F)c2)n1 [Example 17, (2S,4S)-1-(3-Cyano-6-methyl-4-(trifluoromethyl)pyridin-2-yl)-N-(3,5-difluorophenyl)-4-hydroxy-N-methylpyrrolidine-2-carboxamide] | 97 nM | 
14 | CCN(C(=O)[C@@H]1[C@H](O)CCN1c1nc(C)cc(C(F)(F)F)c1C#N)c1ccc(F)c(Cl)c1 [Example 82, (2S,3R)—N-(3-Chloro-4-fluorophenyl)-1-(3-cyano-6-methyl-4-(trifluoromethyl)pyridin-2-yl)-N-ethyl-3-hydroxypyrrolidine-2-carboxamide] | 8 nM | 
15 | C=Cc1c(F)ccc(N(C)C(=O)[C@@H]2COC(=O)N2c2cc(C(F)(F)F)cc(C)n2)c1F [Example 107, (S)—N-(2,4-Difluoro-3-vinylphenyl)-N-methyl-3-(6-methyl-4-(trifluoromethyl)pyridin-2-yl)-2-oxooxazolidine-4-carboxamide] | 18 nM | 
16 | Cc1cc(C(F)(F)F)cc(N2C(=O)[C@@H](O)[C@@H](O)[C@H]2C(=O)N(C)c2cc(F)cc(Cl)c2)n1 [Example 68, (2S,3S,4S)-N-(3-Chloro-5-fluoro-phenyl)-3,4-dihydroxy-N-methyl-1-(6-methyl-4-(trifluoromethyl)pyridin-2-yl)-5-oxopyrrolidine-2-carboxamide] | 31 nM | 
17 | CCN(C(=O)[C@@H]1[C@H](O)[C@H](O)CN1c1nc(C)cc(C(F)(F)F)c1C#N)c1ccc(F)c(F)c1 [Example 56, (2S,3S,4R)-1-(3-Cyano-6-methyl-4-(trifluoromethyl)pyridin-2-yl)-N-(3,4-difluorophenyl)-N-ethyl-3,4-dihydroxypyrrolidine-2-carboxamide] | 42 nM | 
18 | Cc1cccc(N(C)C(=O)[C@@H]2C[C@H](O)CN2c2cc(C(F)(F)F)cc(C)n2)c1 [Example 27, (2S,4S)-4-Hydroxy-N-methyl-1-(6-methyl-4-(trifluoromethyl)pyridin-2-yl)-N-(m-tolyl)pyrrolidine-2-carboxamide] | 12 nM | 

Results, then the molecule that gave them:

Row | IC50 (Polθ IC50 (nM)) | IC50 (read-out: Polθ IC50) | SMILES
19 | 130 nM |  | Cc1cc(C(F)(F)F)c(C#N)c(N2CCC[C@H]2C(=O)N(C)c2cc(Cl)c3ccn(C)c3n2)n1 [Example 244, (S)—N-(4-Chloro-1-methyl-pyrrolo[2,3-b]pyridin-6-yl)-1-[3-cyano-6-methyl-4-(trifluoromethyl)-2-pyridyl]-N-methyl-pyrrolidine-2-carboxamide]
20 | 3 nM |  | CC(=O)N1CCN(CCN2C[C@@H](C(=O)N(C)c3ccc(F)c(Cl)c3F)N(c3cc(C(F)(F)F)cc(C)n3)C2=O)CC1 [Example 204, (S)-1-(2-(4-Acetylpiperazin-1-yl)ethyl)-N-(3-chloro-2,4-difluoro-phenyl)-N-methyl-3-(6-methyl-4-(trifluoromethyl)pyridin-2-yl)-2-oxoimidazolidine-4-carboxamide]
21 | 3 nM |  | [2H]C([2H])([2H])N(C(=O)[C@@H]1[C@H](O)[C@H](O)C(=O)N1c1cc(C(F)(F)F)cc(C)n1)c1ccc(F)c(Cl)c1F [Example 162, (2S,3S,4S)—N-(3-Chloro-2,4-difluorophenyl)-3,4-dihydroxy-N-(methyl-d3)-1-(6-methyl-4-(trifluoromethyl)pyridin-2-yl)-5-oxopyrrolidine-2-carboxamide]
22 | 6 nM |  | Cc1cc(C(F)(F)F)cc(N2C(=O)N(CC(C)O)C[C@H]2C(=O)N(C)c2ccc(F)c(Cl)c2)n1 (stereo partly drawn) [Example 160, (4S)—N-(3-Chloro-4-fluorophenyl)-1-(2-hydroxypropyl)-N-methyl-3-(6-methyl-4-(trifluoromethyl)pyridin-2-yl)-2-oxoimidazolidine-4-carboxamide]
23 | 14 nM |  | Cc1cc(C(F)(F)F)cc(N2C(=O)NC[C@H]2C(=O)N(C)c2ccc3occ(C)c3n2)n1 [Example 236, (S)—N-Methyl-3-(6-methyl-4-(trifluoromethyl)pyridin-2-yl)-N-(3-methylfuro[3,2-b]pyridin-5-yl)-2-oxoimidazolidine-4-carboxamide]
24 | 6 nM |  | Cc1cc(C(F)(F)F)cc(N2C(=O)N(CCOS(N)(=O)=O)C[C@H]2C(=O)N(C)c2ccc(F)c(Cl)c2F)n1 [Example 227, (S)-2-(4-((3-Chloro-2,4-difluorophenyl)(methyl)carbamoyl)-3-(6-methyl-4-(trifluoromethyl)pyridin-2-yl)-2-oxoimidazolidin-1-yll sulfamate]
25 | 104 nM |  | CCN(C(=O)[C@@H]1C[C@H](N2CCOC[C@H]2CO)CN1c1nc(C)cc(C(F)(F)F)c1C#N)c1ccc(F)c(Cl)c1 [Example 153, (2S,4S)-N-(3-Chloro-4-fluorophenyl)-1-(3-cyano-6-methyl-4-(trifluoromethyl)pyridin-2-yl)-N-ethyl-4-((R)-3-(hydroxymethyl)morpholino)pyrrolidine-2-carboxamide]
26 | 26 nM |  | Cc1cc(C(F)(F)F)cc(N2C(=O)N(CCN3CCC3)C[C@H]2C(=O)N(C)c2ccc(F)c(Cl)c2F)n1 [Example 201, (S)-1-(2-(Azetidin-1-yl)ethyl)-N-(3-chloro-2,4-difluorophenyl)-N-methyl-3-(6-methyl-4-(trifluoromethyl)-pyridin-2-yl)-2-oxoimidazolidine-4-carboxamide]
27 | 15 nM |  | CCN(C(=O)[C@@H]1C[C@H](N2CCO[C@H](CO)C2)CN1c1nc(C)cc(C(F)(F)F)c1C#N)c1ccc(F)c(Cl)c1 [Example 154, (2S,4S)-N-(3-Chloro-4-fluorophenyl)-1-(3-cyano-6-methyl-4-(trifluoromethyl)pyridin-2-yl)-N-ethyl-4-((S)-2-(hydroxymethyl)morpholino)pyrrolidine-2-carboxamide]
28 | 20 nM |  | Cc1cc(C(F)(F)F)cc(N2C(=O)OC[C@H]2C(=O)N(C)c2ccc(Br)c(Cl)c2)n1 [Example 172, (S)-N-(4-Bromo-3-chlorophenyl)-N-methyl-3-(6-methyl-4-(trifluoromethyl)pyridin-2-yl)-2-oxooxazolidine-4-carboxamide]
29 | 240 nM |  | Cc1cc(C(F)(F)F)c(C#N)c(N2[C@H](C)CC[C@H]2C(=O)N(C)c2ccc(F)c(Cl)c2)n1 [Example 241, (2S,5R)—N-(3-Chloro-4-fluorophenyl)-1-(3-cyano-6-methyl-4-(trifluoromethyl)pyridin-2-yl)-N,5-dimethylpyrrolidine-2-carboxamide]
